The text below walks through data of patent publication US5670527A, “Pyridyl imidazole compounds and compositions” (SmithKline Beecham Corporation, priority 1995, dated 1997).

One test relates to human PGHS-2 protein expression in LPS stimulated human monocytes. In words: Prostoglandin endoperoxide synthase-2 (PGHS-2) assay. The test is classed as cell-based. As to conditions: rank order potency similar to that for inhibiting cytokine production. How it is done: The followiong assay describes a method for determining the inhibitory effects of compounds of Formula (I) on human PGHS-2 protein expression in LPS stimulated human monocytes
Human peripheal blood monocytes were isolated from buffy coats by centrifugation through Ficoll and Percoll gradients. Cells were seeded at 2×10^6 /well in 24 well plates and allowed to adhere for 1 hour in RPMI supplemented with 1% human AB serum, 20 mM L-glutamine, Penicillin-Streptomycin and 10 mM HEPES. Compounds were added at various concentrations and incubated at 37° C. for 10 minutes. LPS was added at 50 ng/well (to induce enzyme expression) and incubated overnight at 37° C. The supernatant was removed and cells washed once in cold PBS. The cells were lysed in 100 μl of cold lysis buffer(50 mM Tris/HCl pH 7.5, 150 mM NaCl, 1% NP40, 0.5% sodium deoxycholate, 0.1% SDS, 300 ug/ml DNAse, 0.1% TRITON X-100, 1 mM PMSF, 1 mM leupeptin, 1 mM pepstatin). The lysate was centrifuged (10;000×g for 10 min. at 4° C.) to remove debris and the soluble fraction was subjected to SDS PAGE. analysis (12% gel). Protein separated on the gel were transferred onto nitrocellulose membrane by electrophoretic means for 2 hours at 60 volts. The membrane was pretreated for one hour in PBS/0.1% Tween 20 with 5% non-fat dry milk. After washing 3 times in PBS/Tween buffer, the membrane was incubated with a 1:2000 dilution of a monospecific antiserum to PGHS-2 or a 1:1000 dilution of an antiserum to PGHs-1 in PBS/Tween with 1% BSA for one hour with continuous shaking. […] The membrane was then washed 3× in PBS/Tween and the ECL immunodetection system (Amersham) was used to detect the level of expression of prostaglandin endoperoxide synthases-2.
Regarding `Fc1ccc(-c2nc3n(c2-c2ccncc2)CCS3)cc1` [6-(4-Fluorophenyl)-2,3-dihydro-5-(4-pyridinyl)imidazo [2,1-b]thiazole], the “inhibition of LPS induced PGHS-2 protein expression” value (from here on “inhibition”) was “active”.
Turning to `C[C@@H]1C[C@H]2[C@@H]3CCC4=CC(=O)C=C[C@]4(C)[C@@]3(F)[C@@H](O)C[C@]2(C)[C@@]1(O)C(=O)CO` [Dexamethasone], the “inhibition” value is “active”.
For `Fc1ccc(-c2ncn(CCCN3CCOCC3)c2-c2ccncc2)cc1` [Example 1, 1-[3-(4-Morpholinyl)propyl]-4-(4-fluorophenyl)-5-(4-pyridyl)imidazole], the “inhibition” value was “active”.

The test is the same for the next values; noted with them: up to 10 uM.
As for `C[S+]([O-])c1ccc(-c2nc3n(c2-c2ccncc2)CCC3)cc1` (stereo not shown) [2-(4-Methylsulfinylphenyl)-3-(4-pyridyl)-6-7-dihydro-(5H)-pyrrolo[1,2-a]imidazole], the “inhibition” value is “inactive”.
Still for that read-out and setting: the same measure for `CC(Cc1ccc(O)c(O)c1)C(C)Cc1ccc(O)c(O)c1` (stereo not shown) [NDGA]: “inactive”.
Regarding `O=C1CCN(c2ccccc2)N1` [phenidone], the “inhibition” value was “inactive”.
The same measure, in the same setting: the result for `COc1ccc(C2CNC(=O)C2)cc1OC1CCCC1` (stereo not shown) [rolipram] reads “inactive”.
